Test results taken from EP4818159A1 (Kissei Pharmaceutical Co., Ltd., priority 2023, dated 2025).
Where two headings read alike, the source gives them in different places.

Key:
human TSHR = target: T1, human TSHR (Homo sapiens, UniProt P16473); test: Antagonist activity using TSH-induced cAMP production in human TSHR-stably expressing CHO cells; format: cell-based; settings: human TSH final concentration of 50 ng/mL, cAMP production rate
T1 construct: expressed in transfected cells
Method: Measurement of antagonist activity using TSH-induced cAMP production in human TSHR-stably expressing CHO cells as an indicator
The gene sequence (reference number NM_000369.2) of human TSHR was inserted into the multiple cloning site of pcDNA3.1(+). The prepared plasmid vector was introduced into CHO cells using a lipofection method to establish human TSHR-stably expressing CHO cells. The obtained cells were seeded at 5 x 10^4 cells/well in a 96-well poly-D-lysine-coated plate, and cultured in an F12 culture medium containing 10% FBS, 400 µg/mL of G418, 50 U/mL of penicillin and 50 µg/mL of streptomycin under conditions of 37°C and 5% CO2 for 1 day. The culture medium was removed, and the cells were then washed twice with 100 µL of an assay buffer (Hanks' Balanced Salt Solution containing 20 mM HEPES and 1 mM IBMX) per well. 30 µL of an assay buffer containing a test compound was added to the well, and incubation was performed at room temperature for 15 minutes. Then, 30 µL of an assay buffer containing human TSH (a final concentration of 50 ng/mL, R&D Systems, Inc.) was added, and incubation was performed at 37°C for 1 hour. The supernatant was removed, a Lysis and Detection Buffer 2 (Cisbio) was added, and incubation was performed at room temperature for 1 hour to prepare a cell lysate. According to the instruction manual of a cAMP Gs HiRange kit (Cisbio), the cell lysate, d2-labeled cAMP and anti-cAMP Europium Cryptate labeled antibodies (Cisbio) were reacted in a 384-well white microplate. Then, a fluorescence intensity ratio (measurement wavelength 665 nm/620 nm) was measured using a multi-plate reader (PHERAstar FSX, BMG LABTECH Japan). The fluorescence intensity ratio of each sample was converted to a cAMP content using a standard curve. The cAMP content was converted as a percentage of the control value to calculate a cAMP production rate. The cAMP production rate was plotted against the test compound concentration using Prism (Graph Pad Software Inc.) to calculate the IC50 value. In the tables, IC50<3.0 µM was indicated as A, and 3.0 µM≤IC50<30 µM was indicated as B. If activity was observed but the IC50 value could not be calculated, it was indicated as C.

[1] = cited from earlier work

T1 sequence (P16473 21-764): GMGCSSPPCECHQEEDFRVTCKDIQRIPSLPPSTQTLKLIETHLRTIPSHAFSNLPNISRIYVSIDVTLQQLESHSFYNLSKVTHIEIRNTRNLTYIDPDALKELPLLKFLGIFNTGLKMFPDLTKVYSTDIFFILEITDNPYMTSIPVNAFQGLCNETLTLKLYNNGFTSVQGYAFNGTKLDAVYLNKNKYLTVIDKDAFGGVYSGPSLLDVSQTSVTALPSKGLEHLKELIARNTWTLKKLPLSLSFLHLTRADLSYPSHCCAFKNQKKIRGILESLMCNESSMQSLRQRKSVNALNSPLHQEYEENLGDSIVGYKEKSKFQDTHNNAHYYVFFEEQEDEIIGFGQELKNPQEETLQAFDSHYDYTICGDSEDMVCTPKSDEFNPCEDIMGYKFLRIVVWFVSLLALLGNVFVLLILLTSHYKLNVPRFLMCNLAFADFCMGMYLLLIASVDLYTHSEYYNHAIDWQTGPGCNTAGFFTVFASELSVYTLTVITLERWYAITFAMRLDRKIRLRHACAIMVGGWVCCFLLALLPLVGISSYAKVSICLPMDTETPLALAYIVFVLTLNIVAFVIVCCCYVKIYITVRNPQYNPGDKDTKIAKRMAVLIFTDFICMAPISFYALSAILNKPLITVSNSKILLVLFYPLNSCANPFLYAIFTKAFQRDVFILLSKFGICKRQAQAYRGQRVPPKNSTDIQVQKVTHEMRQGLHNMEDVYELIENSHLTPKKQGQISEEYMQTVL

IC50 (human TSHR) [µM]	SMILES	blood T4 concentration lowering effect ([1]; mice in which a TSH-releasing hormone (TRH) has been administered)	blood T4 concentration lowering effect ([1]; mice in which a thyroid stimulating antibody M22 has been administered)
< 3	CN1C(=O)C(NC(N)=O)Cc2cc(NC(=O)OCC3CC3)cc(Oc3cccc(C(F)(F)F)n3)c21 (stereo not drawn) [Example 7, cyclopropylmethyl (1-methyl-2-oxo-8-((6-(trifluoromethyl)pyridin-2-yl)oxy)-3-ureido-1,2,3,4-tetrahydroquinoline-6-yl)carbamate]	–	–
3 to 30	CN1C(=O)C(CNC(N)=O)Cc2cccc(Oc3ccccc3)c21 (stereo not drawn) [Example 10, 1-((1-methyl-2-oxo-8-phenoxy-1,2,3,4-tetrahydroquinoline-3-yl)methyl)urea]	–	–
< 3	CN1C(=O)C(CC(N)=O)Cc2cc(NC(=O)OC3CCCC3)cc(Oc3ccccc3)c21 (stereo not drawn) [Example 2, cyclopentyl (3-(2-amino-2-oxoethyl)-1-methyl-2-oxo-8-phenoxy-1,2,3,4-tetrahydroquinoline-6-yl)carbam ate]	–	–
< 3	CN1C(=S)C(NC(N)=O)Cc2cccc(Oc3cc(F)ccc3Cl)c21 (stereo not drawn) [Example 27, 1-(8-(2-chloro-5-fluorophenoxy)-1-methyl-2-thioxo-1,2,3,4-tetrahydroquinoline-3-yl)urea]	–	–
3 to 30	Cc1cnc2n1-c1c(cccc1Oc1cc(F)ccc1Cl)CC2NC(N)=O (stereo not drawn) [Example 29, 1-(9-(2-chloro-5-fluorophenoxy)-1-methyl-4,5-dihydroimidazo[1,2-a]quinolin-4-yl)urea]	–	–
3 to 30	CN1C(=O)[C@H](NC2=NC(=O)CN2)Cc2cccc(Oc3cc(F)ccc3Cl)c21 [Example 33, (R)-8-(2-chloro-5-fluorophenoxy)-1-methyl-3-((4-oxo-4,5-dihydro-1H-imidazole-2-yl)amino)-3,4-dihydroquinoline-2(1H)-one]	–	–
< 3	CN1C(=O)[C@H](NC(N)=O)Cc2cccc(C(=O)c3ccccc3Cl)c21 [Example 11, (R)-1-(8-(2-chlorobenzoyl)-1-methyl-2-oxo-1,2,3,4-tetrahydroquinoline-3-yl)urea]	–	–
< 3	CN1C(=O)[C@H](NC(N)=O)Cc2sc(CO)c(Cc3cc(F)ccc3Cl)c21 [Example 41, (R)-1-(3-(2-chloro-5-fluorobenzyl)-2-(hydroxymethyl)-4-methyl-5-oxo-4,5,6,7-tetrahydrothieno[3,2-b]pyridin-6-yl)urea]	–	–
< 3	CN1C(=O)C(NC(N)=O)Cc2cc(NC(=O)OC3CCCC3)cc(Oc3cccc(C(F)(F)F)n3)c21 (stereo not drawn) [Example 5, cyclopentyl (1-methyl-2-oxo-8-((6-trifluoromethylpyridin-2-yl)oxy)-3-ureido-1,2,3,4-tetrahydroquinoline-6-yl)carbamate]	–	–
< 3	C[C@H](OC(=O)Nc1cc2c(c(Oc3cccc(C(F)(F)F)n3)c1)N(C)C(=O)C(NC(N)=O)C2)C(F)(F)F (stereo partly drawn) [Example 6, (S)-1,1,1-trifluoropropan-2-yl (1-methyl-2-oxo-8-((6-trifluoromethylpyridin-2-yl)oxy)-3-ureido-1,2,3,4-tetrahydroquinoline-6-yl)carbamate]	–	–
–	COc1ccc(C2Nc3ccccc3C(=O)N2Cc2ccco2)cc1COc1c(C)cc(NC(C)=O)cc1C (stereo not drawn) [NCGC00242364]	blood T4 concentration lowering effect	blood T4 concentration lowering effect
< 3	CN1C(=O)[C@H](NC(N)=O)Cc2sc(C#N)c(Cc3cc(F)ccc3Cl)c21 [Example 40, (R)-1-(3-(2-chloro-5-fluorobenzyl)-2-cyano-4-methyl-5-oxo-4,5,6,7-tetrahydrothieno[3,2-b]pyridin-6-yl)urea]	–	–
< 3	CN1C(=O)C(NC(N)=O)Cc2scc(C(=O)c3cc(F)ccc3Cl)c21 (stereo not drawn) [Example 42, 1-(3-(2-chloro-5-fluorobenzoyl)-4-methyl-5-oxo-4,5,6,7-tetrahydrothieno[3,2-b]pyridin-6-yl) urea]	–	–
3 to 30	CN1C(=O)[C@H](N2CCNC2=O)Cc2cccc(Oc3cc(F)ccc3Cl)c21 [Example 24, (R)-8-(2-chloro-5-fluorophenoxy)-1-methyl-3-(2-oxoimidazolidine-1-yl)-3,4-dihydroquinoline-2(1H)-one]	–	–
< 3	CN1C(=O)C(OC(N)=O)Cc2cccc(Oc3cc(F)ccc3Cl)c21 (stereo not drawn) [Example 26, 8-(2-chloro-5-fluorophenoxy)-1-methyl-2-oxo-1,2,3,4-tetrahydroquinoline-3-yl carbamate]	–	–
< 3	CN1C(=O)[C@H](NC(N)=O)Cc2csc(Cc3cc(F)ccc3Cl)c21 [Example 36, (R)-1-(7-(2-chloro-5-fluorobenzyl)-1-methyl-2-oxo-1,2,3,4-tetrahydrothieno[3,4-b]pyridine-3-yl)urea]	–	–
< 3	CC1(c2ccccc2)CC(C)(C)N2C(=O)[C@H](NC(N)=O)Cc3cccc1c32 (stereo partly drawn) [Example 15, 1-((2R)-5,5,7-trimethyl-3-oxo-7-phenyl-2,3,6,7-tetrahydro-1H,5H-pyrido[3,2,1-ij]quinolin-2-yl)urea]	–	–
